Earlier results, collected in patent US12687554B2, “Molecular profiling of tumors” (Caris MPI, Inc., priority 2006, dated 2026).
Entries after “also recorded” stand apart in the source; their conditions may differ. Where two headings read alike, the source gives them in different places.

Tested on: differentially expressed or mutated biomarker in cancer cells
[1] = EGFR, FISH, Positive, with loss of PTEN, mutation of KRAS or BRAF per Summary
[2] = KRAS, Mutational Analysis, Mutated
[3] = KRAS, Mutational Analysis, Wild type genotype
[4] = KRAS, Mutational Analysis, Wild type genotype, with loss of PTEN and/or FISH negative EGFR per Summary
[5] = PTEN, IHC, Above Threshold, with the other biomarker results named in the Summary
[6] = biomarker EGFR, FISH, result Negative (lack of EGFR gene copy number increase)
[7] = biomarker EGFR, FISH, result Positive (high EGFR gene copy number)
[8] = biomarker EGFR, FISH, result Positive, with the other biomarker results named in the Summary
[9] = biomarker EGFR, Mutational Analysis, result Mutated
[10] = biomarker EGFR, Mutational Analysis, result Mutated, with the other biomarker results named in the Summary
[11] = biomarker EGFR, Mutational Analysis, result Wild type genotype
[12] = biomarker KRAS, Mutational Analysis, result Mutated
[13] = biomarker KRAS, Mutational Analysis, result Wild type genotype
[14] = biomarker KRAS, Mutational Analysis, result Wild type genotype, with the other biomarker results named in the Summary
[15] = biomarker PTEN, IHC, result Above Threshold, with the other biomarker results named in the Summary
[16] = EGFR, Mutational Analysis, Mutated
[17] = EGFR, Mutational Analysis, Wild type genotype
[18] = biomarker PTEN, IHC, result Negative (loss of PTEN protein expression)

Molecule: COc1cc2ncnc(Nc3ccc(F)c(Cl)c3)c2cc1OCCCN1CCOCC1 [gefitinib]
- Recommended Agents (EGFR, FISH, Positive): gefitinib
- Resistant Agents [1]: gefitinib
- Resistant Agents [2]: gefitinib
- Recommended Agents [3]: gefitinib
- Resistant Agents [4]: gefitinib
- Recommended Agents [5]: gefitinib
- Resistant Agents [5]: gefitinib
- Resistant Agents (PTEN, IHC, Negative): gefitinib
- Resistant Agents [6]: gefitinib
- Recommended Agents [7]: gefitinib
- Resistant Agents [8]: gefitinib
- Recommended Agents [9]: gefitinib
- Resistant Agents [10]: gefitinib
- Resistant Agents [11]: gefitinib
- Resistant Agents [12]: gefitinib
- Recommended Agents [13]: gefitinib
- Resistant Agents [14]: gefitinib
- Recommended Agents (biomarker PTEN, IHC, result Above Threshold): gefitinib
- Resistant Agents [15]: gefitinib

Molecule: COc1cc2ncnc(Nc3ccc(F)c(Cl)c3)c2cc1OCCCN1CCOCC1 [Gefitinib]
- Resistant Agents (EGFR, FISH, Negative): Gefitinib
- Resistant Agents [1]: Gefitinib
- Recommended Agents [16]: Gefitinib
- Resistant Agents [17]: Gefitinib
- Recommended Agents [5]: Gefitinib; also recorded: Gefitinib,
- Resistant Agents [5]: Gefitinib
- Resistant Agents [15]: Gefitinib
- Resistant Agents [18]: Gefitinib,; also recorded: Gefitinib

Molecule: CC(=O)Oc1ccccc1C(=O)O [asprin]
- Recommended Agents (COX-2, Microarray, Overexpressed): asprin

Molecule: CC(=O)Oc1ccccc1C(=O)O [aspirin]
- Recommended Agents (COX-2, IHC, Above Threshold): aspirin
- Resistant Agents (COX-2, IHC, Negative): aspirin

Molecule: CC1=C(/C=C/C(C)=C/C=C/C(C)=C/C(=O)O)C(C)(C)CCC1 [ATRA]
- Recommended Agents (RARA, Microarray, Overexpressed, for use only on hematologic malignancies): ATRA

Molecule: panitumumab
- Resistant Agents (BRAF, Mutational Analysis, Mutated): panitumumab
- Recommended Agents (BRAF, Mutational Analysis, Wild type genotype): panitumumab
- Resistant Agents (BRAF, Mutational Analysis, Wild type genotype, with loss of PTEN and/or FISH negative EGFR per Summary): panitumumab
- Resistant Agents [1]: panitumumab,
- Resistant Agents [2]: panitumumab,
- Recommended Agents [3]: panitumumab,
- Resistant Agents [4]: panitumumab,
- Recommended Agents [5]: panitumumab,; also recorded: panitumumab
- Resistant Agents [5]: panitumumab,
- Resistant Agents (PTEN, IHC, Negative): panitumumab,
- Resistant Agents (biomarker BRAF, Mutational Analysis, result Mutated): panitumumab
- Resistant Agents (biomarker BRAF, Mutational Analysis, result Wild type genotype, with the other biomarker results named in the Summary): panitumumab
- Resistant Agents [6]: panitumumab,
- Resistant Agents [8]: panitumumab,
- Resistant Agents [12]: panitumumab,
- Resistant Agents [14]: panitumumab,
- Resistant Agents [15]: panitumumab,
- Resistant Agents [18]: panitumumab,

Molecule: C#Cc1cccc(Nc2ncnc3cc(OCCOC)c(OCCOC)cc23)c1 [Erlotinib]
- Resistant Agents (EGFR, FISH, Negative): Erlotinib
- Resistant Agents [1]: Erlotinib
- Recommended Agents [16]: Erlotinib
- Resistant Agents [17]: Erlotinib
- Recommended Agents [5]: Erlotinib; also recorded: Erlotinib,
- Resistant Agents (PTEN, IHC, Negative): Erlotinib,
- Resistant Agents [15]: Erlotinib
- Resistant Agents [18]: Erlotinib,; also recorded: Erlotinib

Molecule: Cc1ccc(NC(=O)c2ccc(CN3CCN(C)CC3)cc2)cc1Nc1nccc(-c2cccnc2)n1 [imatinib]
- Recommended Agents (c-kit, Mutational Analysis, Mutated, mutations in exon 9): imatinib
- Resistant Agents (c-kit, Mutational Analysis, Mutated, mutations in exon 11): imatinib
- Recommended Agents (c-kit, Mutational Analysis, Wild type genotype): imatinib

Molecule: CS(=O)(=O)CCNCc1ccc(-c2ccc3ncnc(Nc4ccc(OCc5cccc(F)c5)c(Cl)c4)c3c2)o1 [lapatinib]
- Recommended Agents (Her2/Neu, FISH, Amplified): lapatinib
- Resistant Agents (Her2/Neu, FISH, Not Amplified): lapatinib
- Recommended Agents (Her2/Neu, IHC, Above Threshold): lapatinib
- Resistant Agents (Her2/Neu, IHC, Negative): lapatinib
- Resistant Agents [5]: lapatinib
- Resistant Agents (PTEN, IHC, Negative): lapatinib

Molecule: C#Cc1cccc(Nc2ncnc3cc(OCCOC)c(OCCOC)cc23)c1 [erlotinib]
- Resistant Agents (EGFR, FISH, Negative): erlotinib
- Recommended Agents (EGFR, FISH, Positive): erlotinib
- Resistant Agents [1]: erlotinib
- Resistant Agents [2]: erlotinib
- Recommended Agents [3]: erlotinib
- Resistant Agents [4]: erlotinib
- Recommended Agents [5]: erlotinib
- Resistant Agents [5]: erlotinib
- Resistant Agents (PTEN, IHC, Negative): erlotinib
- Resistant Agents [6]: erlotinib
- Recommended Agents [7]: erlotinib
- Resistant Agents [8]: erlotinib
- Recommended Agents [9]: erlotinib
- Resistant Agents [10]: erlotinib
- Resistant Agents [11]: erlotinib
- Recommended Agents [13]: erlotinib
- Resistant Agents [14]: erlotinib
- Resistant Agents [15]: erlotinib
- Resistant Agents [18]: erlotinib,

Molecule: Panitumumab
- Resistant Agents [1]: Panitumumab,
- Recommended Agents [5]: Panitumumab,
- Resistant Agents [15]: Panitumumab,
- Resistant Agents [18]: Panitumumab,
